According to patent US20220218701A1, “COMPOSITIONS AND METHODS COMPRISING ENDOTHELIN A RECEPTOR ANTAGONISTS AND ANDROGEN THERAPIES” (priority 2019, published 2022):
“Also recorded” adds a separate entry of the source.

Legend:
[1] = test system: breast cancer osteosclerotic bone metastasis; conditions: mouse, in vivo; cited from earlier work
[2] = test system: metastatic CRPC; conditions: cited from earlier work
[3] = test system: metastatic prostate cancer; conditions: cited from earlier work
[4] = test system: prostate cancer bone metastasis; conditions: in vivo; cited from earlier work
[5] = test system: castrate-resistant prostate cancer (CRPC); conditions: phase 2, 288 men with CRPC, cited from earlier work
[6] = test system: osteoblast; conditions: cited from earlier work
[7] = as reported by the applicant's group; cited from earlier work
[8] = test system: metastatic CRPC; conditions: phase 2, 312 men with metastatic CRPC; increased from 17.3; cited from earlier work
[9] = target: T1, endothelin B receptor (ETBR) (Homo sapiens, UniProt P24530); conditions: cited from earlier work
T1 sequence (P24530 27-442): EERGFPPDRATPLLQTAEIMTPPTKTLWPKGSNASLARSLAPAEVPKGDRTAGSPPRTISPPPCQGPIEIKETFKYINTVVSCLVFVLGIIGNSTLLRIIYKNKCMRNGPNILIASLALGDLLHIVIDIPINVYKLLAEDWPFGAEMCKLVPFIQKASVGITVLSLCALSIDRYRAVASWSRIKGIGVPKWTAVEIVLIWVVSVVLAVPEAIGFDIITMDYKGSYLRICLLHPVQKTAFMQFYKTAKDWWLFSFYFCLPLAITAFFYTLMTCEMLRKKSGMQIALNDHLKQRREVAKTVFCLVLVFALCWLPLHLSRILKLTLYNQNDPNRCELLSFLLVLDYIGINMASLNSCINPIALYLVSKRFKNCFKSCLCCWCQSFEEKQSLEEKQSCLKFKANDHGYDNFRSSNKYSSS

[10] = test system: ARCaPM prostate cancer cell line; assay: ARCaPM prostate cancer bone metastasis model, intracardiac inoculation, castration or sham surgery; type: in vivo, athymic nude mice
Experimental: Forty-eight male athymic nude mice either underwent castration or sham surgery at four weeks of age. At 5 weeks of age, mice were inoculated with ARCaPM prostate cancer cell line into the left cardiac ventricle. […] Two days later, mice began zibotentan 25 mg/kg/day or vehicle control by gavage.
(§1) Forty-eight HSD athymic nude male mice were obtained from Harlan Sprague Dawley (Envigo, Indianapolis, Ind.) after undergoing castration or sham surgery. At five weeks of age, mice were anesthetized using isoflurane vaporizer anesthesia. ARCaPM prostate cancer cells were washed, resuspended in PBS, and inoculated into the left cardiac ventricle at a volume of 100 μl containing 1×10^5 cells, as previously described. Starting at seven days post-inoculation, mice were weighed every 2-3 days.
Zibotentan is an ETAR-specific antagonist and was obtained from AstraZeneca (Cambridge, England). Zibotentan was dissolved in 1% polysorbate 80 at a concentration of 5 mg/ml. Mice in the treatment group received zibotentan 25 mg/kg/day. Mice in the vehicle control group received an equivalent volume of 1% polysorbate 80 via gavage. Gavage treatments were started two days after the intracardiac inoculations (5 weeks+2 days of age) seven days/week. The dosing scheduled was changed to five days/week at 59 days post-inoculation.
(§2) Mice were anesthetized using an isoflurane vaporizer anesthetic unit and underwent radiographic imaging using a Faxitron UltraFocus 60 Digital Radiographic Unit (Faxitron, Tucson, Ariz.) every 2-4 weeks with attention paid to the appearance of sclerotic or lytic skeletal lesions.
Following euthanasia, mouse femora, tibiae, humeri, spines and other bones were harvested and fixed in 10% buffered formalin for 48 hours and decalcified in Immunocal (Decal Chemical Corp, Suffern, N.Y.) for an additional 48 hours. Bones were rinsed, processed and paraffin embedded. Blocks were cut into 5 μm sections, mounted onto charged glass slides, and air-dried overnight.
Static histomorphometric analysis was performed on embedded samples stained with hematoxylin, eosin, and orange G, a bone matrix stain. Images of the samples were taken at 4× with Nikon Eclipse 90i upright microscope and Nikon HD Cooled Color Digital Camera DXM1200C paired with Nikon ACT-1C software. Each sample produced 10 to 30 tiled scans of the whole specimen and were stitched using Adobe Photoshop CC. Tumor area was traced and measured on Adobe Photoshop CC with Cintiq 22HD touch (Wacom) tablet PC and stylus. Then, measured tumor area was divided by each subject's age in days for further statistical analysis.
Forty-eight male athymic nude mice underwent castration (24 mice) or sham surgery (24 mice) at three weeks of age. At five weeks of age, ARCaPM prostate cancer cells (1×10^5 cells in 100 μl) were inoculated into the left cardiac ventricle. […] Two days later, zibotentan 25 mg/kg/day or vehicle control treatments by gavage were started. This strategy produced four experimental groups: vehicle+sham (Veh+Sham), vehicle+castrate (Veh+Castr), zibotentan+sham (Zibo+Sham), and zibotentan+castrate (Zibo+Castr) (FIG. 2).

[11] = Body weight and adverse effects in the ARCaPM model; type: in vivo, athymic nude mice
Experimental: Mice body weights were measured starting at 7 days post-inoculation and continued every 2-3 days until the completion of the experiment at 152 days. Two days after inoculation, mice began to receive zibotentan or vehicle control. Due to potential adverse effects in the Zibo+Castr group, the dosing was reduced to 5 days/week starting at day 59 post inoculation. Veh=vehicle control; Zibo=zibotentan; Sham=sham surgery; Castr=castration
as §1, §2
The mice underwent radiographic imaging every 2-4 weeks to monitor for the development of bone lesions. Mice were also monitored frequently for abnormal behavior indicating the presence of a large tumor burden. Euthanasia was performed according to pre-determined humane endpoints—15% weight loss, paralysis, skeletal fractures, or any other signs of distress. Mice were weighed every 2-3 days (FIG. 3). As expected, mice in the castration groups had less weight gain compared to the sham groups, as has been reported elsewhere.

[12] = target: T2, ETAR (Mus musculus, UniProt Q61614); assay: Il-6 expression (RT-PCR) in calvarial osteoblasts treated with ET-1; type: cell-based; conditions: 100 μM zibotentan pre-treatment six hours, then 10 nM ET-1 four hours
T2 construct: Murine calvarial osteoblasts were collected and cultured as previously described; endogenous in cells; host or cells: primary murine calvarial osteoblasts
T2 sequence (Q61614 21-427): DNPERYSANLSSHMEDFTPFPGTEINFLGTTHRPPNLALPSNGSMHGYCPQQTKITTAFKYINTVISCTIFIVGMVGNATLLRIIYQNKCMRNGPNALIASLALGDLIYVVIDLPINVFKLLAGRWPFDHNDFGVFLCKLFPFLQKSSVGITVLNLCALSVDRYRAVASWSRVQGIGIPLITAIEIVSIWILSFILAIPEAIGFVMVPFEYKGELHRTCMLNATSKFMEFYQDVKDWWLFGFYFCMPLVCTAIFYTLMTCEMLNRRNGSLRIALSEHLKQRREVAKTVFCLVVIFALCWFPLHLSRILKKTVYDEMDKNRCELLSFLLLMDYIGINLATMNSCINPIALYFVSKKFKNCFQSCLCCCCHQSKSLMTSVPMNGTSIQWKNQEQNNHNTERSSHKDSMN
Experimental: Calvarial osteoblasts were cultured and pre-treated with or without 100 μM zibotentan for six hours followed by treatment with or without 10 nM ET-1 for four hours. RNA has then harvested and analyzed for the expression of Il-6, a marker of ET-1 action in osteoblasts. Il-6 expression was normalized to the housekeeping gene Rpl32. Data was analyzed using one-way ANOVA followed by Tukey's multiple comparison test.
Murine calvarial osteoblasts were collected and cultured as previously described^7. Two days post-confluence, osteoblasts were treated in triplicate with or without 100 μM zibotentan for six hours. This was followed by treatment with or without 10 nM ET-1 for four hours. RNA was collected using Direct-zol™ RNA MiniPrep Plus kit (Zymo, Irvine, Calif.) according to the manufacturer's directions. RNA was then analyzed by RT-PCR using the iTaq Universal SYBR Green One-Step Kit and a C1000 Thermal Cycler with a CFX96 fluorescent real-time attachment (Bio-Rad, Hercules, Calif.) using the following primers: Il-6: F, ccg gag agg aga ctt cac ag; R, gga aat tgg ggt agg aag ga; and Rpl32: F, cag ggt gcg gag aag gtt caa ggg; R, ctt aga gga cac gtt gtg agc aat. […] Changes in mRNA concentration were determined by subtracting […] (Δ=CtIl-6−CtRpl32). […] The fold difference was calculated as 2^ε.

[13] = test system: non-metastatic prostate cancer; conditions: phase 3, monotherapy, non-metastatic disease; stopped early; cited from earlier work
[14] = test system: ET-1; assay: Serum ET-1 ELISA at euthanasia in the ARCaPM model; type: in vivo, mice
Experimental: Sera were collected at euthanasia and frozen. Thawed sera were analyzed for ET-1 concentration using ELISA in the four experimental groups and further subdivided into the presence or absence of prostate cancer lesions. Data was analyzed using two-way ANOVA. Treatment with zibotentan was a significant source of statistical variation. Blood was collected at euthanasia. Sera was collected using serum-separator centrifuge tubes (BD Microtainer®, SST, Becton Dickinson, Franklin Lakes, N.J.), and frozen at −80° C. for later analyses. ET-1 concentration was measured in thawed sera using an ET-1 colorimetric ELISA kit (R&D Systems, Minneapolis, Minn.) and a BioTek Synergy HTX plate reader (Winooski, Vt.).

[15] = Zibo + Castr group, zibotentan 25 mg/kg/day gavage
[16] = Zibo + Sham group, zibotentan 25 mg/kg/day gavage
[17] = Zibo+Sham vs Veh+Sham and Veh+Castr groups
[18] = effect of castration in zibotentan treated groups, Zibo+Castr vs. Zibo+Sham

CCCCN(CCCC)C(=O)CN1C[C@H](c2ccc3c(c2)OCO3)[C@@H](C(=O)O)[C@@H]1c1ccc(OC)cc1 [atrasentan]
formation of osteoblastic lesions [1]: blocked | tumor progression outside of bone [1]: not tumor progression outside of bone | overall or progression-free survival compared to placebo ([2]; men with metastatic CRPC treated with docetaxel): did not improve | survival ([2]; patients with the highest circulating levels of bone turnover markers): survival benefit | time to progression (primary endpoint) ([3]; phase 3, 809 men with metastatic disease): did not reduce | bone alkaline phosphatase progression ([3]; phase 3, secondary analyses): did reduce | bone lesions [4]: significantly reduced | lesions outside of the skeleton such as adrenal gland and liver [4]: not lesions outside of the skeleton | prostate-specific antigen (PSA) progression [5]: delayed | time to progression ([5]; increased from 129): 196 days | anabolic effects of ET-1 on the osteoblast [6]: block

COc1nc(C)cnc1NS(=O)(=O)c1cccnc1-c1ccc(-c2nnco2)cc1 [zibotentan]
side effect underlying gastrointestinal effects [7]: immune-related damage of nasal olfactory epithelium leading to aerophagia and intestinal distention | overall survival [8]: 24.5 months | affinity for the endothelin B receptor (ETBR) [9]: no affinity | number of skeletal lesions, Left leg Prox tibia [10, 15]: 1 | number of soft tissue lesions, TOTAL [10, 15]: 0 | number of skeletal lesions, Left leg Dist femur [10, 16]: 1 | number of skeletal lesions, Left leg Prox tibia [10, 16]: 1 | number of skeletal lesions, Maxilla [10, 16]: 2 | number of skeletal lesions, Rib [10, 16]: 1 | number of skeletal lesions, Right arm Prox humerus [10, 16]: 1 | number of skeletal lesions, Right arm Prox radius [10, 16]: 1 | number of skeletal lesions, TOTAL [10, 16]: 8 | number of skeletal lesions, Thoracic spine T10 [10, 16]: 1 | number of soft tissue lesions, Adrenal Right [10, 16]: 1 | number of soft tissue lesions, Eye Left [10, 16]: 1 | number of soft tissue lesions, TOTAL [10, 16]: 2 | time to bone-specific tumor events ([10]; Zibo+Castr compared to Zibo+Sham group, p=0.0250): longer | detectable tumor at the completion of the experiment ([10]; Zibo+Castr group, day 152): No mouse | survival ([10]; Zibo+Castr vs Veh+Sham groups): no survival difference | time to a tumor event (tumor-free status) ([10]; Zibo+Castr vs Zibo+Sham group, p=0.0149): significantly longer time to a tumor event | radiographically apparent lesions at the end of the experiment ([10]; Zibo+Castr, 152 days): lack of radiographically apparent lesions | survival (Kaplan-Meier) ([10]; Zibo+Sham group, p=0.0045): significantly shorter survival | skeletal lesion area (histomorphometry) [10, 17]: No significant differences | tumor area adjusted to the day post-inoculation of euthanasia [10, 17]: differences among the groups were not detected | survival ([10]; absence of androgen, Zibo+Castr vs. Veh+Castr, p=0.0050): improved survival | number of skeletal lesions [10, 18]: reduced the number of skeletal lesions | survival [10, 18]: increased survival | survival ([10]; sham-operated mice, Zibo+Sham vs. Veh+Sham, p=0.0171): decrease survival | body weight gain ([11]; Zibo+Castr group): lack of significant weight gain was more evident | radiographic images, intestinal air ([11]; Zibo+Castr group): intestinal gas distension within the stomach and intestines | mice that lost more than 15% of weight and were euthanized ([11]; Zibo+Castr group, 34 and 42 days post-inoculation, no tumor found): Two | abdominal distension ([11]; Zibo+Castr group, within 2-4 weeks of treatment initiation): developed abdominal distension | unintended consequences of zibotentan and castration ([11]; combination of zibotentan and castration): weight loss, diffuse gas distention within the stomach and intestines, and respiratory epithelial inflammation | Il-6 expression (marker of ET-1 action, normalized to Rpl32) [12]: prevented the increase in Il-6 expression; also recorded: blocks ETAR signaling | overall survival (primary outcome) [13]: lack of effect | serum ET-1 concentration ([14]; zibotentan-treated tumor-bearing mice vs tumor-free): trend for higher serum ET-1 | serum ET-1 concentration ([14]; zibotentan-treated vs vehicle control mice, sera at euthanasia): significant increase; also recorded: higher
